Among the data in PubChem BioAssay AID1625 (Sanford-Burnham Center for Chemical Genomics, 2009) are EC50 values, retold here.

Calls of active or inactive are those of the source.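 Rule for the calls: active = z-score above 3 at 5 µM with at least 500 cells counted in the well; inconclusive = wells under 500 cells, flagged as cytotoxic or low count; inactive = the rest.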 Bounds are passed on as bounds.

The assay has as its system MIN6 insulin promoter-GFP reporter, high-content imaging. Kind of assay: up-regulation of insulin promoter-GFP reporter – imaging, high-content screening, mouse beta cells (AID 1625).
As for `O=C1/C(=C/c2ccc(N3CCCC3)cc2)NC(=S)N1C1CC1`, the EC50 is 7.35 µM. In the case of `CN1CC=C2C(C#N)=C(N)C(C#N)(C#N)C(c3ccsc3)C2C1` (stereo not given) it was 10.4 µM (inactive). In the case of `CC(=O)c1c(C)[nH]c(-c2ccccc2)nc1=S` it was 9.08 µM; in that of `CNC(=O)c1c(NC(=O)c2ccc(S(=O)(=O)N3CCCc4ccccc43)cc2)sc2c1CCN(C)C2`, > 16 µM (inactive); in that of `O=c1c(Cl)c2oc3ccccc3nc-2c2ccccc12`, > 16 µM (inactive). In the case of `COc1ccc(/C=C2\C(=O)NC(=S)N2C(=O)c2ccc(F)cc2)cc1` it was > 16 µM (inactive); in that of `Cc1oc(C)c2c(=O)ccc3c(c12)OC(N)=C(C#N)C3c1ccccc1Cl` (stereo not given), 11.4 µM (inactive). For the compound `CCCN1CCc2c(sc(NC(=S)NC(=O)c3ccccc3)c2C#N)C1`, the EC50 was 7.92 µM. The result for `CCN(CC)c1ccc(/C=C(/C#N)C(=O)NC(C)C)o1` reads > 16 µM (inactive).

Turning to `N#C/C(=C\c1ccc(-c2ccc(C(=O)O)cc2)o1)c1nc2ccccc2[nH]1`, the EC50 is > 16 µM (inactive). The result for `CCCN1C(=O)/C(=C\C=C2\N(CC)c3ccccc3C2(C)C)SC1=S` reads > 16 µM (inactive); that for `Cn1c(/C(C#N)=C/c2ccc(-c3ccc(S(N)(=O)=O)cc3)o2)nc2ccccc21`, > 16 µM (inactive); that for `N#C/C(=C/c1ccc(N2CCCCCC2)o1)c1ccc(Cl)cc1`, 10.1 µM (inactive). As to `N#CC(C#N)=C1C=C2C=C(N3CCCCC3)CCC2CC1` (stereo not given), the concentration giving a half-maximal response (EC50) is 0.643 µM. In the case of `Cc1oc(C)c2c(=O)ccc3c(c12)OC(N)=C(C#N)C3c1ccc(F)cc1` (stereo not given) it was > 16 µM (inactive). As for `CCOC(=O)N1CCN(/C=C(\C#N)c2nc3ccccc3s2)CC1`, the EC50 is > 16 µM (inactive). Turning to `CCN(CC)c1ccc2cc(-c3nc4ccccc4[nH]3)c(=O)oc2c1`, the concentration for a half-maximal effect (EC50) is 0.281 µM. In the case of `C=CCN1C(=O)/C(=C/c2ccc(N3CCOCC3)o2)C(=O)NC1=S` it was > 16 µM (inactive); in that of `CC(C)(C)C(=O)/C=c1\s/c(=C\c2ccc(-c3ccc([N+](=O)[O-])cc3)o2)c(=O)n1CC(=O)NC(N)=O`, 0.829 µM; in that of `CCN1/C(=C/c2ccc3cc(C)ccc3[n+]2CC)Sc2ccccc21`, 1.1 µM.

For the compound `CCCSc1nc2sc3c(c2c(=O)[nH]1)CCN(Cc1ccccc1)C3`, the EC50 was > 16 µM (inactive).

As to `CCN1CCc2c(sc(NC(=S)NC(=O)c3ccc(Cl)cc3)c2C(N)=O)C1`, the EC50 is 14.1 µM (inactive). The result for `CC(=O)Nc1cccc(C(=O)/C=C/c2ccc(N(C)C)cc2)c1` reads 12.9 µM (inactive); that for `COc1ccc2c(n1)Sc1nc3ccccc3nc1N2`, > 16 µM (inactive); that for `CCC(C)N1C(=O)/C(=C/c2c(NCCCOC(C)C)nc3c(C)cccn3c2=O)SC1=S` (stereo not given), 2.83 µM. The result for `Cn1cc(/C=C2\SC(=S)N(NC(=O)c3ccccc3)C2=O)c2ccccc21` reads > 16 µM (inactive); that for `N#C/C(=C/c1ccc(N2CCCCC2)o1)C(=O)Nc1ccc(Cl)cc1`, 0.482 µM; that for `COc1cc2c(cc1OC)C1=CC(=O)C(=O)N1C(C)(C)C2`, 11.5 µM (inactive). The result for `CCCCN1C(=O)/C(=C/C=C2\Oc3ccccc3N2CC)SC1=S` reads 0.958 µM; that for `Cc1n[nH]c(C)c1N1C(=O)c2cccc3c(N4CCCCCC4)ccc(c23)C1=O`, 9.13 µM. `N#C/C(=C/c1ccc(N2CCOCC2)o1)c1nc2ccccc2[nH]1`: the EC50 is 7.76 µM.

In the case of `CC(C)N1CCc2c(sc(NC(=O)c3cc4cc([N+](=O)[O-])ccc4s3)c2C(N)=O)C1`, the EC50 is > 16 µM (inactive). The result for `Nc1c(C(=O)N/N=C/c2ccccc2Cl)oc2nc(-c3ccccc3)cc(-c3ccco3)c12` reads > 16 µM (inactive). In the case of `COc1ccc2c(C)cc(SCC(=O)N(C)C3CCS(=O)(=O)C3)nc2c1` (stereo not given) it was > 16 µM (inactive); in that of `Cc1ccc(C(=O)NN2C(=O)/C(=C/c3cn(C)c4ccccc34)SC2=S)cc1`, > 16 µM (inactive).

A word on the EC50: it is the midpoint of the concentration-response curve.
